{
  "source": "patent US10981932B2",
  "about": "“Macrocyclic indole derivatives” (Bayer Aktiengesellschaft, priority 2016, dated 2021)",
  "key": {"[1]": {"conditions": "11-membered ring"}, "[2]": {"test_system": "SUDHL5", "experiment": "Anti-proliferative effect (CellTiter-Glo, 72 h), SUDHL5", "assay_type": "cell-based", "conditions": "SUDHL5 cells, antiproliferation, 72 h incubation, median, read-out: Antiproli SUDHL5 [M] (median)", "how_it_was_run": "(§1)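 Cells were treated with compounds for 72 h at 37 °C in a humidified incubator, and viability was measured by CellTiter-Glo luminescence. A parallel day 0 plate, read the same way, gave the time zero baseline.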"}, "[3]": {"target": "MCL-1 (Homo sapiens, UniProt Q07820)", "sequence (Q07820 whole entry)": "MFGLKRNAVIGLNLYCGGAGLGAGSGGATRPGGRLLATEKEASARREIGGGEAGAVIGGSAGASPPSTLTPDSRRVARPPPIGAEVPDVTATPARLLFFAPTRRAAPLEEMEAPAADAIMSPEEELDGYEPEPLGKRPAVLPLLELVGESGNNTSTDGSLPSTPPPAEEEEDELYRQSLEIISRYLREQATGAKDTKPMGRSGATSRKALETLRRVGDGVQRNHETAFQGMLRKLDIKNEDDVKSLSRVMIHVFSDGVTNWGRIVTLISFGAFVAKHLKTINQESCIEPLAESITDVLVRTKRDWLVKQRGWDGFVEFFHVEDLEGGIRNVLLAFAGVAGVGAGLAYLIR", "experiment": "Protein-protein interaction assay MCL-1/Noxa BH3 peptide (MCL-1 assay), TR-FRET", "assay_type": "binding", "conditions": "MBP-MCL-1 / Noxa BH3-derived peptide, median", "how_it_was_run": "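TR-FRET, 665/622 nm emission ratio (excitation 330–350 nm), measured MCL-1/Noxa complex formation. 1 nM MBP-MCL-1, 50 mM Tris/HCl pH 7, 0.1% BGG, 2 mM DTT. Incubation 1 h at 22 °C, then overnight at 4 °C. IC50 by 4-parameter regression, normalized to DMSO (0%) and no-MCL-1 (100%) controls.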"}, "[4]": {"test_system": "SUDHL5"}, "[5]": {"target": "SUDHL5", "experiment": "Induction of caspase-3/7 activity (Caspase-Glo 3/7), SUDHL5", "assay_type": "cell-based", "conditions": "caspase-3/7 induction, SUDHL5 cells, 3 h treatment; median", "how_it_was_run": "(§2)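 DLBCL cells treated with compounds for 3 h at 37 °C, then caspase-3/7 activity read by Caspase-Glo 3/7 luminescence. Medium-only background subtracted; EC50 fitted with C0 fixed at 1 and top set to the reference compound's maximal induction.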"}, "[6]": {"target": "SUDHL10", "experiment": "Induction of caspase-3/7 activity (Caspase-Glo 3/7), SUDHL10", "assay_type": "cell-based", "conditions": "caspase-3/7 induction, SUDHL10 cells, 3 h treatment; median", "how_it_was_run": "as §2"}, "[7]": {"test_system": "MV-4-11", "experiment": "Anti-proliferative effect (CellTiter-Glo, 72 h), MV-4-11", "assay_type": "cell-based", "conditions": "MV-4-11 cells, median, read-out: IC50 antiproliferation assay MV-4-11 [M] (median)", "how_it_was_run": "as §1"}, "[8]": {"test_system": "A2780", "experiment": "Anti-proliferative effect (CellTiter-Glo, 72 h), A2780", "assay_type": "cell-based", "conditions": "A2780 cells, median, read-out: IC50 antiproliferation assay A2780 [M] (median)", "how_it_was_run": "as §1"}, "[9]": {"test_system": "SUDHL10"}, "[10]": {"test_system": "SUDHL10", "experiment": "Anti-proliferative effect (CellTiter-Glo, 72 h), SUDHL10", "assay_type": "cell-based", "conditions": "SUDHL10 cells, antiproliferation, 72 h incubation, median, read-out: Antiproli SUDHL10 [M] (median)", "how_it_was_run": "as §1"}, "[11]": {"test_system": "OPM2", "experiment": "Anti-proliferative effect (CellTiter-Glo, 72 h), OPM2", "assay_type": "cell-based", "conditions": "OPM2 cells, median, read-out: IC50 antiproliferation assay OPM2 [M] (median)", "how_it_was_run": "as §1"}},
  "note": "Read-outs that look alike come from different tables or passages of the source.",
  "data": [
    {"compound": "CCOC(=O)c1[nH]c2c(-c3c(CC)nn(C)c3CO)c(C)ccc2c1CCCO[Si](C)(C)C(C)(C)C", "values": [
      {"measurement": "ring closure, isolated yield", "setting": "[1]; the molecule shown is the open-chain precursor, crosslinker bond, (2Z)-1,4-dichlorobut-2-ene/NaH, DMF, 65.1 mM", "value": 68.9, "unit": "%"}
    ]},
    {"compound": "(rac)-(E/Z)-ethyl-1,3-dimethyl-7-[3-(naphthalen-1-yloxy)propyl]-1,10,13,15-tetrahydropyrazolo[4′,3′:9,10][1,6]oxazacycloundecino[8,7,6-hi]indole-8-carboxylate", "values": [
      {"measurement": "ring closure, isolated yield", "setting": "[1]; rcm bond, Grubbs II (10 mol%), DCM, 77.0 mM", "value": 57, "unit": "%"}
    ]},
    {"compound": "CCOC(=O)c1[nH]c2c(-c3c(CO)nn(C)c3CC)cccc2c1CCCO[Si](C)(C)C(C)(C)C", "values": [
      {"measurement": "ring closure, isolated yield", "setting": "[1]; the molecule shown is the open-chain precursor, crosslinker bond, (2Z)-1,4-dichlorobut-2-ene/NaH, DMF, 65.6 mM", "value": 75.3, "unit": "%"}
    ]},
    {"compound": "(rac)-(E/Z)-ethyl-2,3-dimethyl-7-[3-(naphthalen-1-yloxy)propyl]-2,10,13,15-tetrahydropyrazolo[4′,3′:9,10][1,6]oxazacycloundecino[8,7,6-hi]indole-8-carboxylate", "values": [
      {"measurement": "ring closure, isolated yield", "setting": "[1]; rcm bond, Grubbs II (10 mol%), DCM, 77.8 mM", "value": 15, "unit": "%"}
    ]},
    {"compound": "CCc1c2c(nn1C)COCCCCn1c(C(=O)O)c(CCCOc3cccc4cc(F)ccc34)c3cccc-2c31", "note": "(racemic) [Example 281, (rac)-3-ethyl-7-{3-[(6-fluoronaphthalen-1-yl)oxy]propyl}-2-methyl-2,10,11,12,13,15-hexahydropyrazolo[4′,3′:9,10][1,6]oxazacycloundecino[8,7,6-hi]indole-8-carboxylic Acid]", "values": [
      {"measurement": "IC50", "setting": "[2]", "value": "2.48e-06", "unit": "M"},
      {"measurement": "IC50", "setting": "[3]", "value": 0.00163, "unit": "µM"},
      {"measurement": "IC50", "setting": "[4]", "value": 1.85, "unit": "µM"},
      {"measurement": "EC50", "setting": "[5]", "value": 1.45, "unit": "µM"},
      {"measurement": "EC50", "setting": "[6]", "value": 2.78, "unit": "µM"},
      {"measurement": "IC50", "setting": "[7]", "value": "4.74e-06", "unit": "M"},
      {"measurement": "IC50", "setting": "[8]", "value": "1.39e-05", "unit": "M"},
      {"measurement": "IC50", "setting": "[9]", "value": 2.58, "unit": "µM"},
      {"measurement": "IC50", "setting": "[10]", "value": "6.99e-06", "unit": "M"}
    ]},
    {"compound": "CCOC(=O)c1[nH]c2c(-c3c(CO)nn(CCN4CCOCC4)c3C)c(C)ccc2c1CCCO[Si](C)(C)C(C)(C)C", "values": [
      {"measurement": "ring closure, isolated yield", "setting": "[1]; the molecule shown is the open-chain precursor, crosslinker bond, (2Z)-1,4-dichlorobut-2-ene/NaH, DMF, 65.7 mM", "value": 48.3, "unit": "%"}
    ]},
    {"compound": "CN1CCCn2c(C(=O)O)c(CCCOc3cccc4ccccc34)c3cccc(c32)-c2c(CCN3CCOCC3)nn(C)c2C1", "note": "(single isomer, unassigned; enantiomer 1) [Example 125, 7,9-dimethyl-11-[2-(morpholin-4-yl)ethyl]-1-[3-(naphthalen-1-yloxy)propyl]-4,5,6,7,8,9-hexahydropyrazolo[3′,4′:7,8][1,5]diazecino[9,10,1-hi]indole-2-carboxylic Acid (Enantiomer 1)]", "values": [
      {"measurement": "IC50", "setting": "[2]", "value": "2.53e-06", "unit": "M"},
      {"measurement": "IC50", "setting": "[3]", "value": 0.0108, "unit": "µM"},
      {"measurement": "IC50", "setting": "[4]", "value": 6.3, "unit": "µM"},
      {"measurement": "EC50", "setting": "[5]", "value": 6.2, "unit": "µM"},
      {"measurement": "IC50", "setting": "[11]", "value": "1.15e-05", "unit": "M"},
      {"measurement": "EC50", "setting": "[6]", "value": 14, "unit": "µM"},
      {"measurement": "IC50", "setting": "[7]", "value": "2.02e-06", "unit": "M"},
      {"measurement": "IC50", "setting": "[8]", "value": "8.42e-06", "unit": "M"},
      {"measurement": "IC50", "setting": "[9]", "value": 13.9, "unit": "µM"},
      {"measurement": "IC50", "setting": "[10]", "value": "7.66e-06", "unit": "M"}
    ]}
  ]
}
